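These data come from cells grown in 96-well plates and exposed to compound for 48 hours at five concentrations. GI50 = concentration required for 50% inhibition of growth. Definition used: TGI = concentration required for complete inhibition of growth.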
Key:
Experiment in all cases: growth of human tumour cells (NCI), 48 h
U251 CNS = test system: U251 CNS
OVCAR-5 ovarian = test system: OVCAR-5 ovarian
KM12 colon = test system: KM12 colon
786-0 renal = test system: 786-0 renal
NCI-H460 lung = test system: NCI-H460 lung
T-47D breast = test system: T-47D breast
SK-OV-3 ovarian = test system: SK-OV-3 ovarian
A549 NSCLC = test system: A549 NSCLC
SF-295 CNS = test system: SF-295 CNS
SF-539 CNS = test system: SF-539 CNS
MALME-3M melanoma = test system: MALME-3M melanoma
OVCAR-3 ovarian = test system: OVCAR-3 ovarian
NCI-H226 lung = test system: NCI-H226 lung
HCT-116 colon = test system: HCT-116 colon
IGROV1 ovarian = test system: IGROV1 ovarian
RPMI-8226 leukemia = test system: RPMI-8226 leukemia
UACC-257 melanoma = test system: UACC-257 melanoma
HOP-92 NSCLC = test system: HOP-92 NSCLC
M14 melanoma = test system: M14 melanoma
SNB-75 CNS = test system: SNB-75 CNS
HL-60(TB) leukemia = test system: HL-60(TB) leukemia
PC-3 prostate = test system: PC-3 prostate
NCI/ADR-RES ovarian = test system: NCI/ADR-RES ovarian
OVCAR-4 ovarian = test system: OVCAR-4 ovarian
HCT-15 colon = test system: HCT-15 colon
CCRF-CEM leukemia = test system: CCRF-CEM leukemia
CAKI-1 renal = test system: CAKI-1 renal
OVCAR-8 ovarian = test system: OVCAR-8 ovarian
NCI-H23 lung = test system: NCI-H23 lung
SK-MEL-5 melanoma = test system: SK-MEL-5 melanoma
LOX IMVI melanoma = test system: LOX IMVI melanoma
SNB-19 CNS = test system: SNB-19 CNS
ACHN renal = test system: ACHN renal
BT-549 breast = test system: BT-549 breast
RXF 393 renal = test system: RXF 393 renal
DU-145 prostate = test system: DU-145 prostate
NCI-H522 lung = test system: NCI-H522 lung
MDA-MB-231 breast = test system: MDA-MB-231 breast
UO-31 renal = test system: UO-31 renal
TK-10 renal = test system: TK-10 renal
HT29 colon = test system: HT29 colon
SW-620 colon = test system: SW-620 colon
HS 578T breast = test system: HS 578T breast
MCF7 breast = test system: MCF7 breast
UACC-62 melanoma = test system: UACC-62 melanoma
SF-268 CNS = test system: SF-268 CNS
HCC-2998 colon = test system: HCC-2998 colon
SK-MEL-28 melanoma = test system: SK-MEL-28 melanoma
COLO 205 colon = test system: COLO 205 colon
A498 renal = test system: A498 renal
SR leukemia = test system: SR leukemia
SN12C renal = test system: SN12C renal
SK-MEL-2 melanoma = test system: SK-MEL-2 melanoma
K-562 leukemia = test system: K-562 leukemia
HOP-62 NSCLC = test system: HOP-62 NSCLC
MOLT-4 leukemia = test system: MOLT-4 leukemia
MDA-MB-435 = test system: MDA-MB-435
EKVX NSCLC = test system: EKVX NSCLC
MDA-N = test system: MDA-N

## Cc1ccncc1N1CCN(c2ccnc(Cl)c2)C1=O
U251 CNS
  GI50: > 100 µM
  TGI: > 100 µM
OVCAR-5 ovarian
  GI50: > 100 µM
  TGI: > 100 µM
KM12 colon
  GI50: > 100 µM
  TGI: > 100 µM
786-0 renal
  GI50: > 100 µM
  TGI: > 100 µM
NCI-H460 lung
  GI50: > 100 µM
  TGI: > 100 µM
T-47D breast
  GI50: > 100 µM
  TGI: > 100 µM
SK-OV-3 ovarian
  GI50: > 100 µM
  TGI: > 100 µM
A549 NSCLC
  GI50: > 100 µM
  TGI: > 100 µM
SF-295 CNS
  GI50: > 100 µM
  TGI: > 100 µM
SF-539 CNS
  GI50: > 100 µM
  TGI: > 100 µM
MALME-3M melanoma
  GI50: > 100 µM
  TGI: > 100 µM
OVCAR-3 ovarian
  GI50: > 100 µM
  TGI: > 100 µM
NCI-H226 lung
  GI50: > 100 µM
  TGI: > 100 µM
HCT-116 colon
  GI50: > 100 µM
  TGI: > 100 µM
IGROV1 ovarian
  GI50: > 100 µM
  TGI: > 100 µM
RPMI-8226 leukemia
  GI50: > 100 µM
  TGI: > 100 µM
UACC-257 melanoma
  GI50: > 100 µM
  TGI: > 100 µM
HOP-92 NSCLC
  GI50: > 100 µM
  TGI: > 100 µM
M14 melanoma
  GI50: > 100 µM
  TGI: > 100 µM
SNB-75 CNS
  GI50: > 100 µM
  TGI: > 100 µM
HL-60(TB) leukemia
  GI50: > 100 µM
  TGI: > 100 µM
PC-3 prostate
  GI50: > 100 µM
  TGI: > 100 µM
NCI/ADR-RES ovarian
  GI50: > 100 µM
  TGI: > 100 µM
OVCAR-4 ovarian
  GI50: > 100 µM
  TGI: > 100 µM
HCT-15 colon
  GI50: > 100 µM
  TGI: > 100 µM
CCRF-CEM leukemia
  GI50: > 100 µM
  TGI: > 100 µM
CAKI-1 renal
  GI50: > 100 µM
  TGI: > 100 µM
OVCAR-8 ovarian
  GI50: > 100 µM
  TGI: > 100 µM
NCI-H23 lung
  GI50: > 100 µM
  TGI: > 100 µM
SK-MEL-5 melanoma
  GI50: > 100 µM
  TGI: > 100 µM
LOX IMVI melanoma
  GI50: > 100 µM
  TGI: > 100 µM
SNB-19 CNS
  GI50: > 100 µM
  TGI: > 100 µM
ACHN renal
  GI50: > 100 µM
  TGI: > 100 µM
BT-549 breast
  GI50: > 100 µM
  TGI: > 100 µM
RXF 393 renal
  GI50: > 100 µM
  TGI: > 100 µM
DU-145 prostate
  GI50: > 100 µM
  TGI: > 100 µM
NCI-H522 lung
  GI50: > 100 µM
  TGI: > 100 µM
MDA-MB-231 breast
  GI50: > 100 µM
  TGI: > 100 µM
UO-31 renal
  GI50: > 100 µM
  TGI: > 100 µM
TK-10 renal
  GI50: > 100 µM
  TGI: > 100 µM
HT29 colon
  GI50: > 100 µM
  TGI: > 100 µM
SW-620 colon
  GI50: > 100 µM
  TGI: > 100 µM
HS 578T breast
  GI50: > 100 µM
  TGI: > 100 µM
MCF7 breast
  GI50: > 100 µM
  TGI: > 100 µM
UACC-62 melanoma
  GI50: > 100 µM
  TGI: > 100 µM
SF-268 CNS
  GI50: > 100 µM
  TGI: > 100 µM
HCC-2998 colon
  GI50: > 100 µM
  TGI: > 100 µM
SK-MEL-28 melanoma
  GI50: > 100 µM
  TGI: > 100 µM
COLO 205 colon
  GI50: > 100 µM
  TGI: > 100 µM
A498 renal
  GI50: > 100 µM
  TGI: > 100 µM
SR leukemia
  GI50: > 100 µM
  TGI: > 100 µM
SN12C renal
  GI50: > 100 µM
  TGI: > 100 µM
SK-MEL-2 melanoma
  GI50: > 100 µM
  TGI: > 100 µM
K-562 leukemia
  GI50: > 100 µM
  TGI: > 100 µM
HOP-62 NSCLC
  GI50: > 100 µM
  TGI: > 100 µM
MOLT-4 leukemia
  GI50: > 100 µM
  TGI: > 100 µM
MDA-MB-435
  GI50: > 100 µM
  TGI: > 100 µM
EKVX NSCLC
  GI50: > 100 µM
  TGI: > 100 µM

## COc1ccc(COC(=O)NNC(=O)C2CSC(c3ccccc3)N2C(C)=O)cc1 (centres undefined)
U251 CNS
  TGI: > 100 µM
OVCAR-5 ovarian
  TGI: > 100 µM
KM12 colon
  TGI: > 100 µM
786-0 renal
  TGI: > 100 µM
NCI-H460 lung
  TGI: > 100 µM
SK-OV-3 ovarian
  TGI: > 100 µM
A549 NSCLC
  TGI: > 100 µM
SF-295 CNS
  TGI: > 100 µM
SF-539 CNS
  TGI: > 100 µM
MALME-3M melanoma
  TGI: > 100 µM
OVCAR-3 ovarian
  TGI: > 100 µM
NCI-H226 lung
  TGI: > 100 µM
HCT-116 colon
  TGI: > 100 µM
IGROV1 ovarian
  TGI: > 100 µM
RPMI-8226 leukemia
  TGI: > 100 µM
UACC-257 melanoma
  TGI: > 100 µM
HOP-92 NSCLC
  TGI: > 100 µM
M14 melanoma
  TGI: > 100 µM
SNB-75 CNS
  TGI: > 100 µM
HL-60(TB) leukemia
  TGI: > 100 µM
PC-3 prostate
  TGI: > 100 µM
NCI/ADR-RES ovarian
  TGI: > 100 µM
OVCAR-4 ovarian
  TGI: > 100 µM
HCT-15 colon
  TGI: > 100 µM
CCRF-CEM leukemia
  TGI: > 100 µM
CAKI-1 renal
  TGI: > 100 µM
MDA-N
  TGI: > 100 µM
OVCAR-8 ovarian
  TGI: > 100 µM
NCI-H23 lung
  TGI: > 100 µM
SK-MEL-5 melanoma
  TGI: > 100 µM
LOX IMVI melanoma
  TGI: > 100 µM
SNB-19 CNS
  TGI: > 100 µM
ACHN renal
  TGI: > 100 µM
BT-549 breast
  TGI: > 100 µM
DU-145 prostate
  TGI: > 100 µM
NCI-H522 lung
  TGI: > 100 µM
UO-31 renal
  TGI: > 100 µM
TK-10 renal
  TGI: > 100 µM
HT29 colon
  TGI: > 100 µM
SW-620 colon
  TGI: > 100 µM
HS 578T breast
  TGI: > 100 µM
MCF7 breast
  TGI: > 100 µM
UACC-62 melanoma
  TGI: > 100 µM
SF-268 CNS
  TGI: > 100 µM
HCC-2998 colon
  TGI: > 100 µM
A498 renal
  TGI: > 100 µM
SN12C renal
  TGI: > 100 µM
SK-MEL-2 melanoma
  TGI: > 100 µM
K-562 leukemia
  TGI: > 100 µM
HOP-62 NSCLC
  TGI: > 100 µM
MOLT-4 leukemia
  TGI: > 100 µM
MDA-MB-435
  TGI: > 100 µM
EKVX NSCLC
  TGI: > 100 µM

Source: PubChem BioAssay (NCI)
